Consider four molecules from PMC5345165, “Cardiotoxicity evaluation using human embryonic stem cells and induced pluripotent stem cell-derived cardiomyocytes” (Stem Cell Research & Therapy, 2017).

For one series, the system named is hESC-CMs. Put plainly: xCELLigence RTCA Cardio impedance assay on hESC-CMs. To be noted: for CI (concentration at which cell index is decreased, ↓): arrow ↓ = CI decreased, NO = no effect. The series is classed as cell-based, human. As to the method: (§1) Human ESC-CMs were kindly provided by the Institute of Biophysics of the Chinese Academy of Sciences, Beijing, China. Human iPSC-CMs, provided by a domestic manufacturer (Cellapy: CA2001106, Beijing, China), were also examined. Cells were incubated in maintaining medium at 37 °C, 5% CO2, with culture medium refreshed every 2 days. Cells were dissociated and replated into 96-well E-plates (ACEA Biosciences, Hangzhou, China), which was pre-coated with 0.1% gelatin. Cells were plated at a density of 50,000 cells per well.
(§2) Spontaneous cardiomyocytes contraction and cell health were monitored in real-time by impedance using xCELLigence real-time cellular analyzer (RTCA) Cardio system (ACEA Biosciences, Hangzhou, China). Impedance signals were monitored and recorded with 20 s recording per sweep.
(§3) Drug dilutions were equilibrated in a 37 °C, 5% CO2 incubator for 30 min before being applied to E-plates.
(§4) For data analysis, cellular impedance index, beat rate, and amplitude were measured off-line using RTCA Cardio software 1.0 and normalized for each well to the baseline (pre-dose) values measured prior to the compounds treatment. Statistics were performed using SPSS 21.0 (IBM Corp., Armonk, NY, USA). Data were presented as mean ± SEM. Statistical significance of differences was estimated by one-way ANOVA or Student’s t test. p < 0.05 was considered significant.

Another series relates to hiPSC-CMs. The series is described as follows: xCELLigence RTCA Cardio impedance assay on hiPSC-CMs. The series is classed as cell-based, human. Particulars: for CI (concentration at which cell index is decreased, ↓): arrow ↓ = CI decreased. As to the method: as §1, §2, §3, §4
Where [1] appears, read: concentration-dependent effect, impedance.
[2] abbreviates: hiPSC-CMs, concentration-dependent.
Where [3] appears, read: hiPSC-CMs, concentration-dependent effect, impedance.

As for `Cc1cccc(CCN2CCC(C(=O)c3ccc(NS(C)(=O)=O)cc3)CC2)n1` [E-4031], the “time at which cells recovered automaticity” value in the series on hESC-CMs (10 nmol/L) is on record as 24 h. The “time post administration at which spontaneous beating ceased” value with hESC-CMs (300 nmol/L) is recorded as 0.5 h. Further, the “time of temporary recovery of spontaneous beating activity” value with hESC-CMs (300 nmol/L, one recording) amounted to 18 h. Besides, the “time post administration at which spontaneous activity ceased” value with hESC-CMs (10, 30 and 100 nmol/L) came to 6 h. Further, the spontaneous beating rate entry is “Reduction” in the series with hESC-CMs (all concentrations (10, 30, 100, 300 nmol/L), upon immediate administration); “markedly reduced” in the series on hiPSC-CMs (hiPSC-CMs, 100 nmol/L, 6 h after administration); “significantly reduced” with hiPSC-CMs (hiPSC-CMs, 300 nmol/L, 1 h after administration). Besides, in the series on hiPSC-CMs (hiPSC-CMs, 30 nmol/L, 18 h culture, tended to recover at 24 h), the CI amplitude result was “Reduction”. Besides, the “time at which spontaneous beating ceased” value in the series on hiPSC-CMs (hiPSC-CMs, 100 nmol/L) came out at 12 h. The “time post administration at which spontaneous activity was abolished” value in the series on hiPSC-CMs (hiPSC-CMs, 300 nmol/L) is reported as 2 h.

In the case of `O=C(CCCN1CCC(O)(c2ccc(Cl)cc2)CC1)c1ccc(F)cc1` [Haloperidol, haloperidol], the beating rate entry with hESC-CMs (0.01 μmol/L, 6 h post administration) is recorded as “mild reduction”; in the series with hiPSC-CMs (hPSC-CMs, 1 μmol/L, after 0.5 h), “significantly reduced”. For the same molecule, in the series with hESC-CMs (0.1 μmol/L), the “spontaneous beating rate and amplitudes” value is “significantly reduced”. For the same molecule, the “time at which cellular automaticity ceased” value is listed as 0.5 h in the series with hESC-CMs (1 μmol/L) and 0.5 h in the series on hiPSC-CMs (hPSC-CMs, 10 μmol/L). The “time post administration at which partial recovery was observed” value in the series with hESC-CMs (1 μmol/L) is given as 24 h. The “self-recovery after abolished spontaneous beating” value in the series with hESC-CMs (10 μmol/L, investigation period) was “no self-recovery”. Further, the “effect on CI and pulse signals” value in the series with hESC-CMs (concentration-dependent) and with hiPSC-CMs (setting [2]) was “reduced” throughout. The figures for the “IC50/EC50 (IC50)” value in the series on hESC-CMs (setting [1]) and in the series with hiPSC-CMs (setting [3]) were 140 nM and 5170 nM, respectively. Besides, in the series on hiPSC-CMs (hPSC-CMs, 0.1 μmol/L), the spontaneous beating rate entry is reported as “Mild reduction”. For the same molecule, in the series with hiPSC-CMs (hPSC-CMs, 0.1 μmol/L), the “time post administration at which beating rate recovered” value came to 18 h. Also, the “time at which self-recovery was observed” value in the series with hiPSC-CMs (hPSC-CMs, 10 μmol/L) was determined as 24 h. In addition, in the series with hiPSC-CMs (hPSC-CMs, 10 μmol/L, after self-recovery at 24 h), the “amplitude compared with controls” value is on record as “significantly decreased”. Besides, the “CI (concentration at which cell index is decreased, ↓)” value in the series with hiPSC-CMs (hiPSC-CMs) is 10↓ μmol•L^-1.

In the case of `CC(C)NCC(O)c1ccc(O)c(O)c1` (stereo not drawn) [Isoprenaline, isoprenaline], in the series on hESC-CMs (0.01 μmol/L), the “time after which beating rate recovered” value came to 12 h. The spontaneous beating rate entry in the series with hESC-CMs (0.01 μmol/L, 0.5 h post injection) is reported as “increased”. In addition, in the series with hESC-CMs (0.1, 1 and 10 μmol/L), the “time at which automaticity recovered” value came to 24 h. Besides, the cellular automaticity entry in the series on hESC-CMs (0.1, 1 and 10 μmol/L, 0.5 h post injection) is listed as “significantly increased”. The “CI (concentration at which cell index is decreased, ↓)” value in the series with hESC-CMs was 0.1↓ μmol•L^-1; in the series on hESC-CMs (listed as isoprenaline) it was not below 0.1 µmol/L; in the series on hiPSC-CMs (hiPSC-CMs), 1↓ μmol•L^-1. Further, the “IC50/EC50 (EC50)” value with hESC-CMs (setting [1]) came to 40 nM; in the series on hiPSC-CMs (setting [3]) it was 30 nM. Besides, the amplitude entry with hiPSC-CMs (hPSC-CMs, 0.1, 1 and 10 μmol/L) was “increased”. The “time at which beating rate recovered” value in the series on hiPSC-CMs (hiPSC-CMs, 0.1, 1 and 10 μmol/L) is on record as 24 h. Moreover, in the series with hiPSC-CMs (hiPSC-CMs, 0.1, 1 and 10 μmol/L, after 0.5 h of administration), the beating rate result is “significantly increased”. The “effect on CI” value with hiPSC-CMs (setting [2]) is on record as “decrease”.

Consider `C=C[C@H]1C[N@@]2CC[C@H]1C[C@@H]2[C@@H](O)c1ccnc2ccc(OC)cc12` [Quinidine, quinidine], for which the entries for the “time at which spontaneous beating recovered” value in the series on hESC-CMs (12.5 μmol/L) and with hESC-CMs (50 μmol/L) were 6 h and 24 h, respectively. Besides, in the series with hESC-CMs (100 μmol/L), the “self-recovery after abolished cellular automaticity” value is recorded as “without observing self-recovery”. Moreover, the “effect on CI” value with hESC-CMs (100 μmol/L, when perfusion was initiated) was “significant temporary decrease”; in the series on hiPSC-CMs (setting [2]), “reduced”. Also, the “time post administration at which spontaneous beating ceased” value in the series on hESC-CMs (12.5 and 50 μmol/L) turned out to be 0.5 h. The “CI (concentration at which cell index is decreased, ↓)” value in the series with hESC-CMs and in the series with hiPSC-CMs (hiPSC-CMs) was 100↓ μmol•L^-1 each time. In addition, the “concentration that weakened the pulse signals” value in the series on hESC-CMs (concentration-dependent) is not below 3.13 µmol/L. In addition, the results for the “IC50/EC50 (IC50)” value in the series with hESC-CMs (setting [1]) and in the series on hiPSC-CMs (setting [3]) were 2180 nM and 13970 nM, respectively. The “concentration that weakened the amplitudes of pulse signals” value in the series with hiPSC-CMs (hiPSC-CMs) is not below 12.5 µmol/L. Also, in the series on hiPSC-CMs (hiPSC-CMs, 3.13 μmol/L), the “time after which beating rate spontaneously recovered” value amounted to 1 h. The beating rate entry in the series with hiPSC-CMs (hiPSC-CMs, 3.13 μmol/L, 0.5 h after administration) is on record as “markedly reduced”. Moreover, the “time after which amplitude recovered” value with hiPSC-CMs (hiPSC-CMs, 12.5 μmol/L) is on record as 2 h. Further, the amplitude result in the series with hiPSC-CMs (hiPSC-CMs, 12.5 μmol/L, 0.5 h and 1 h post administration) is on record as “substantially reduced”. In the series with hiPSC-CMs (hiPSC-CMs, 50 and 100 μmol/L), the “self-recovery of automaticity within the observation period” value is on record as “without self-recovery”. In the series on hiPSC-CMs (hiPSC-CMs, 50 and 100 μmol/L), the “time after administration at which cellular automaticity ceased” value worked out at 0.5 h.
